From patent US5093332A, “Substituted thieno(2,3-B)(1,4)thiazine-6-sulfonamides as antiglaucoma agents” (priority 1990, dated 1992)
Where a name gives a salt, the structure may show the parent alone. Read-outs that look alike come from different tables or passages of the source.

Legend:
[1] = background statement; cited from earlier work
[2] = background statement; cited from earlier work; remark: listed apart in the source
[3] = biological target: T1, human carbonic anhydrase II (Homo sapiens, UniProt P00918); assay: Carbonic Anhydrase Binding Assay
[4] = biological target: T1, human carbonic anhydrase II; assay: Carbonic Anhydrase Inhibition Assay; assay type: biochemical
[5] = in vitro binding for human carbonic anhydrase II, read-out: Ki
[6] = in vitro inhibition of human carbonic anhydrase II, read-out: IC50

Row | Ki [3, 5] [µM] | IC50 [4, 6] [µM] | SMILES | also measured
1 |  |  | CC(C)(C)NC[C@H](O)COc1nsnc1N1CCOCC1 [(S)-1-tert-Butylamino-3-[(4-morpholino-1,2-5-thiadiazol-3-yl)ox-yl]-2-propanol] | reduce intraocular pressure [1]: found to reduce intraocular pressure; duration of activity [2]: long duration of activity; local anesthetic properties [2]: devoid of local anesthetic properties; tolerance [2]: minimal tolerance
2 | < 10 | < 10 | NS(=O)(=O)c1cc2c(s1)SCC(=O)N2 [Example 1, 2,3-Dihydro-2-oxo-6-sulfamoyl-1H-thieno[2,3-b][1,4]thiazine] | 
3 | < 10 | < 10 | NS(=O)(=O)c1cc2c(s1)SC(CC(=O)O)C(=O)N2 (centres unmarked) [Example 2, (2,3-Dihydro-2-oxo-6-sulfamoyl-1H-thieno[2,3-b][1,4]thiazin-3-yl)acetic Acid] | 
4 |  |  | NS(=O)(=O)c1cc2c(s1)S(=O)(=O)CC(=O)N2 [Example 4, 2,3-Dihydro-6-sulfamoyl-2,4,4-trioxo-1H-thieno[2,3-b][1,4]thiazine] | Ki [3]: < 10 µM; IC50 [4]: < 10 µM
5 | < 10 | < 10 | NS(=O)(=O)c1cc2c(s1)S(=O)(=O)C(CC(=O)O)C(=O)N2 (centres unmarked) [Example 5, (2,3-Dihydro-2,4,4-trioxo-6-sulfamoyl-1H-thieno[2,3-b][1,4]thiazin-3-yl)acetic acid] | 
6 | < 10 | < 10 | NS(=O)(=O)c1cc2c(s1)S(=O)(=O)CCN2 [Example 6, 2,3-Dihydro-4,4-dioxo-6-sulfamoyl-1H-thieno[2,3-b][1,4]thiazine] | 
7 | < 10 | < 10 | NS(=O)(=O)c1cc2c(s1)S(=O)(=O)CC(=S)N2 [Example 8, 2,3-Dihydro-4,4-dioxo-6-sulfamoyl-2-thiono-1H-thieno[2,3-b][1,4]thiazine] | 
8 | < 10 | < 10 | NS(=O)(=O)c1cc2c(s1)S(=O)(=O)C(CCO)CN2 (centres unmarked) [Example 10, 3-(2-Hydroxyethyl)-2,3-dihydro-4,4-dioxo-6-sulfamoyl-1H-thieno[2,3-b][1,4]thiazine] | 
9 | < 10 | < 10 | COC(=O)CC1C(=O)Nc2cc(S(N)(=O)=O)sc2S1(=O)=O (centres unmarked) [Example 11, Methyl (2,3-Dihydro-2,4,4-trioxo-6-sulfamoyl-1H-thieno[2,3-b][1,4]thiazin-3-yl)acetate] | 
10 | < 10 | < 10 | COC(=O)CC1Sc2sc(S(N)(=O)=O)cc2NC1=O (centres unmarked) [Example 12, Methyl (2,3-Dihydro-2-oxo-6-sulfamoyl-1H-thieno[2,3-b][1,4]thiazin-3-yl)acetate] | 
11 | < 10 | < 10 | NNC(=O)CC1C(=O)Nc2cc(S(N)(=O)=O)sc2S1(=O)=O (centres unmarked) [Example 13, (2,3-Dihydro-6-sulfamoyl-2,4,4-trioxo-1H-thieno[2,3-b][1,4]thiazin-3-yl)acetic Acid Hydrazide] | 
12 | < 10 | < 10 | CCOC(=O)NCC1C(=O)Nc2cc(S(N)(=O)=O)sc2S1(=O)=O (centres unmarked) [Example 14, 2,3-Dihydro-3-ethoxycarbonylaminomethyl-2,4,4-trioxo-6-sulfamoyl-1H-thieno[2,3-b][1,4]thiazine] | 
13 | < 10 | < 10 | COCCOCCN(CCOC)C(=O)CC1C(=O)Nc2cc(S(N)(=O)=O)sc2S1(=O)=O (centres unmarked) [Example 16, N-Methoxyethoxyethyl-N-methoxyethyl(2,3-dihydro-2,4,4-trioxo-6-sulfamoyl-1H-thieno[2,3-b][1,4]thiazin-3-yl)acetamide] | 
14 | < 10 | < 10 | COCCOCCN(CCOC)CCC1C(=O)Nc2cc(S(N)(=O)=O)sc2S1(=O)=O (centres unmarked) [Example 17, 3-[2-(N-Methoxyethoxyethyl-N-methoxyethylamino)ethyl]-2,3-dihydro-2,4,4-trioxo-6-sulfamoyl-1H-thieno[2,3-b][1,4]thiazine] | 
15 | < 10 | < 10 | CC(C)CNCCC1CNc2cc(S(N)(=O)=O)sc2S1(=O)=O (centres unmarked) [Example 18, 3-(2-Isobutylaminoethyl)-2,3-dihydro-4,4-dioxo-6-sulfamoyl-1H-thieno[2,3-b][1,4]thiazine Hydrochloride] | 
16 |  |  | COCCN(CCOC)CCC1CNc2cc(S(N)(=O)=O)sc2S1(=O)=O (centres unmarked) [Example 19, 3-[2-Bis-(2-methoxyethyl)aminoethyl]-2,3-dihydro-4,4-dioxo-6-sulfamoyl-1H-thieno[2,3-b][1,4]thiazine Hydrochloride] | Ki [3]: < 10 µM; IC50 [4]: < 10 µM
17 | < 10 | < 10 | COCCOCCN(CCOC)CCC1CNc2cc(S(N)(=O)=O)sc2S1(=O)=O (centres unmarked) [Example 20, 3-[2-(N-Methoxyethoxyethyl-N-methoxyethylamino)ethyl]-2,3-dihydro-4,4-dioxo-6-sulfamoyl-1H-thieno[2,3-b][1,4]thiazine Hydrochloride] | 
18 |  |  | CNC(=O)Oc1ccc2c(c1)[C@]1(C)CCN(C)[C@@H]1N2C [physostigmine] | reduce intraocular pressure [1]: reduce intraocular pressure
19 |  |  | CC[C@@H]1C(=O)OC[C@@H]1Cc1cncn1C [pilocarpine] | reduce intraocular pressure [1]: reduce intraocular pressure
